Test [1] concerns the target T1, D4 receptor (Homo sapiens, UniProt P21917).
T1 sequence (P21917 1-419): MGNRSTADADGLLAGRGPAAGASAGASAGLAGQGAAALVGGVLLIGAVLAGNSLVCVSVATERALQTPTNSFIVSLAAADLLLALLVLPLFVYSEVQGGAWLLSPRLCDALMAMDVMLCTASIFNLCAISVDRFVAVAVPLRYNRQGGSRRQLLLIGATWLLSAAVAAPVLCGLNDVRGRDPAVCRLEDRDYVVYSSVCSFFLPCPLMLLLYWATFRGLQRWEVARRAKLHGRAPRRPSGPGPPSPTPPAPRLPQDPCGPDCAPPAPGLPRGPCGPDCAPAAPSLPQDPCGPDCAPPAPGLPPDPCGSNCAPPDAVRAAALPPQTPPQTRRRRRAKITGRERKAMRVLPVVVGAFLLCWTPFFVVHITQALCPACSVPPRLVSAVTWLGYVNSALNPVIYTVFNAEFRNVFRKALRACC
Description: D4 receptor binding affinity, Pfizer laboratories. The note with it: for D2/D4: Table 2, ratio of Ki values, Pfizer laboratories data.

The target of test [2] is T1, D4 receptor. Description: D4 receptor binding affinity, NIMH-PDSP.
Another test has as its target D3 receptor (Homo sapiens, UniProt P35462). Description: D3 receptor binding affinity, NIMH-PDSP.
In test [3] the target is T2, D2 receptor (Homo sapiens, UniProt P14416). Description: D2 receptor binding affinity, NIMH-PDSP.
T2 sequence (P14416 whole entry): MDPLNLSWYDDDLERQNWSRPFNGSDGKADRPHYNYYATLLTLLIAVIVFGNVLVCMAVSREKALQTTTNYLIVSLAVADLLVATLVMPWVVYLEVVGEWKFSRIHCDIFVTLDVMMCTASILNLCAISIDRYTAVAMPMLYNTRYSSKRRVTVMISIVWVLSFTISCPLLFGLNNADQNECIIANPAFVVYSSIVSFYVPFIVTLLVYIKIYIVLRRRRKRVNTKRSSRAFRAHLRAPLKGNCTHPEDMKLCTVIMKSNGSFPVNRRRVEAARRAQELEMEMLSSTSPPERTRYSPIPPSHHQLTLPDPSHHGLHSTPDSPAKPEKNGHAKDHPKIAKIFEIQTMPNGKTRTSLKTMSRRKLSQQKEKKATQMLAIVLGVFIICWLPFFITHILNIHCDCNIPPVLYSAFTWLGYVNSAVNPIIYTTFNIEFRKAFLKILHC
Test [4] has as its target T2, D2 receptor. The note with it: cloned human D2-like receptors; ref [11]; cited from earlier work.
Test [5] has as its target T1, D4 receptor. The note with it: cloned human D2-like receptors; ref [11]; cited from earlier work.
In test [6] the target is T2, D2 receptor. Description: D2 receptor binding affinity, Pfizer laboratories. The note with it: same assay procedure in the same laboratory.
[7] abbreviates: Table 2, NIMH-PDSP data, MPA = Missed primary assay threshold of 50% inhibition.

Where a name gives a salt, the structure may show the parent alone.

The Ki is the equilibrium dissociation constant of an inhibitor or competing ligand from its target. Lower therefore signals a stronger hold on the target.

Sequence of D3 receptor (P35462 whole entry): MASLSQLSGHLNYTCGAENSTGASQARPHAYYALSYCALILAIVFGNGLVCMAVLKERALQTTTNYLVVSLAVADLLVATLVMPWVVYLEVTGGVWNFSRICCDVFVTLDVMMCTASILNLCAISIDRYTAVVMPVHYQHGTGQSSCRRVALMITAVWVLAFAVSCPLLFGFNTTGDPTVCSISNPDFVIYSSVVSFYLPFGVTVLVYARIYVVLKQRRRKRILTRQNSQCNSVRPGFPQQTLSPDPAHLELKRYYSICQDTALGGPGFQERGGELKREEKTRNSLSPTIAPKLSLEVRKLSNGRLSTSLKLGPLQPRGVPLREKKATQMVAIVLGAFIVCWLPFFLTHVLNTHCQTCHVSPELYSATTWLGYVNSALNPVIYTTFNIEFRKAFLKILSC

`O=C(CCCN1CC2CC1N(c1ccc(Cl)cc1)C2)c1ccc(F)cc1` (stereo not drawn) [Compound 10]: on D4 receptor [1], the D2/D4 is 0.33.

Consider `c1cnc(N2CCN(Cc3c[nH]c4ncccc34)CC2)nc1` [Compound 15, 3-{(4-(pyrimidin-2-yl)piperazin-1-yl)methyl}-1H-pyrrolo[2,3-b]pyridine], for which, at D4 receptor [1], the D2/D4 was 21.

As to `Clc1ccc(N2C3CCC2CN(Cc2c[nH]c4ncccc24)CC3)cc1` (stereo not drawn) [Compound 9, 3-[(1H-pyrrolo[2,3-b]pyridin-3-yl)methyl]-9-(4-chlorophenyl)-3,9-diazabicyclo[4.2.1]nonane], the D2/D4 on D4 receptor [2] is recorded as above 17. Further, the Ki on D4 receptor [2] is 0.584 ± 0.115 µM; at D3 receptor, 0.335 ± 0.178 µM; at D2 receptor [3], above 10 µM.

With `O=C(CCCN1CCN(c2ccc(Cl)cc2)CC1)c1ccc(F)cc1` [Compound 1], on D2 receptor [4], the “fold D2 potency conferred by butyrophenone (compound 1 vs L745,870)” value is listed as below 4 fold. The D4 selectivity at D4 receptor [5] is listed as 15 fold.

On to `Clc1ccc(N2CCCN(Cc3c[nH]c4ncccc34)CC2)cc1` [Compound 7, 3-{[4-(4-chlorophenyl)-1,4-diazepan-1-yl]methyl}-1H-pyrrolo[2,3-b]pyridine, HCl], for which the “fold lower affinity for the D2 receptor than compound 6” value at D2 receptor [6] is recorded as 7 fold. Moreover, the “fold lower affinity for the D4 receptor than compound 6” value on D4 receptor [1] (same assay procedure in the same laboratory) is 3 fold.

Consider `OC1(c2ccc(Cl)cc2)CCN(Cc2c[nH]c3ncccc23)C1` (stereo not drawn) [Compound 13, 3-(4-chlorophenyl)-1-(1H-pyrrolo[2,3-b]pyridin-3-ylmethyl)pyrrolidin-3-ol], for which, on D3 receptor (setting [7]), the “Ki ± SEM, D3” value is “MPA”. Also, the “Ki ± SEM, D2” value at D2 receptor [3] (setting [7]) is listed as “MPA”.

These data come from PMC2719767 (Bioorganic & medicinal chemistry, 2008).
